± gives the uncertainty stated by the source.
Test: xn = mol fraction of the nth substance listed

Compound: CCOCCO + CCCCCCC
- viscosity (298.15 K, 101.33 kPa, x1 = 0.1091): 0.422 ± 0.012 mPa·s
- viscosity (298.15 K, 101.33 kPa, x1 = 0.1973): 0.455 ± 0.013 mPa·s
- viscosity (298.15 K, 101.33 kPa, x1 = 0.299): 0.51 ± 0.014 mPa·s
- viscosity (298.15 K, 101.33 kPa, x1 = 0.4): 0.585 ± 0.016 mPa·s
- viscosity (298.15 K, 101.33 kPa, x1 = 0.5014): 0.671 ± 0.018 mPa·s
- viscosity (298.15 K, 101.33 kPa, x1 = 0.6986): 0.922 ± 0.023 mPa·s
- viscosity (298.15 K, 101.33 kPa, x1 = 0.799): 1.12 ± 0.027 mPa·s
- viscosity (298.15 K, 101.33 kPa, x1 = 0.8989): 1.39 ± 0.033 mPa·s
- viscosity (303.15 K, 101.33 kPa, x1 = 0.1091): 0.398 ± 0.012 mPa·s
- viscosity (303.15 K, 101.33 kPa, x1 = 0.1973): 0.428 ± 0.012 mPa·s
- viscosity (303.15 K, 101.33 kPa, x1 = 0.299): 0.478 ± 0.014 mPa·s
- viscosity (303.15 K, 101.33 kPa, x1 = 0.4): 0.541 ± 0.015 mPa·s
- viscosity (303.15 K, 101.33 kPa, x1 = 0.5014): 0.619 ± 0.017 mPa·s
- viscosity (303.15 K, 101.33 kPa, x1 = 0.6074): 0.673 ± 0.018 mPa·s
- viscosity (303.15 K, 101.33 kPa, x1 = 0.6986): 0.843 ± 0.021 mPa·s
- viscosity (303.15 K, 101.33 kPa, x1 = 0.799): 1.013 ± 0.025 mPa·s
- viscosity (303.15 K, 101.33 kPa, x1 = 0.8989): 1.247 ± 0.03 mPa·s
- viscosity (308.15 K, 101.33 kPa, x1 = 0.1091): 0.377 ± 0.011 mPa·s
- viscosity (308.15 K, 101.33 kPa, x1 = 0.1973): 0.404 ± 0.012 mPa·s
- viscosity (308.15 K, 101.33 kPa, x1 = 0.299): 0.449 ± 0.013 mPa·s
- viscosity (308.15 K, 101.33 kPa, x1 = 0.4): 0.506 ± 0.014 mPa·s
- viscosity (308.15 K, 101.33 kPa, x1 = 0.5014): 0.574 ± 0.016 mPa·s
- viscosity (308.15 K, 101.33 kPa, x1 = 0.6074): 0.63 ± 0.017 mPa·s
- viscosity (308.15 K, 101.33 kPa, x1 = 0.6986): 0.772 ± 0.02 mPa·s
- viscosity (308.15 K, 101.33 kPa, x1 = 0.799): 0.927 ± 0.023 mPa·s
- viscosity (308.15 K, 101.33 kPa, x1 = 0.8989): 1.133 ± 0.028 mPa·s
- viscosity (313.15 K, 101.33 kPa, x1 = 0.1091): 0.355 ± 0.011 mPa·s
- viscosity (313.15 K, 101.33 kPa, x1 = 0.1973): 0.382 ± 0.011 mPa·s
- viscosity (313.15 K, 101.33 kPa, x1 = 0.299): 0.422 ± 0.012 mPa·s
- viscosity (313.15 K, 101.33 kPa, x1 = 0.4): 0.472 ± 0.013 mPa·s
- viscosity (313.15 K, 101.33 kPa, x1 = 0.5014): 0.535 ± 0.015 mPa·s
- viscosity (313.15 K, 101.33 kPa, x1 = 0.6074): 0.592 ± 0.016 mPa·s
- viscosity (313.15 K, 101.33 kPa, x1 = 0.6986): 0.713 ± 0.019 mPa·s
- viscosity (313.15 K, 101.33 kPa, x1 = 0.799): 0.844 ± 0.021 mPa·s
- viscosity (313.15 K, 101.33 kPa, x1 = 0.8989): 1.026 ± 0.025 mPa·s

Compound: C=C(C)C(=O)OCCO + O=C1CCCCC1
- viscosity (298.15 K, 101 kPa, x2 = 0.1): 5.035 ± 0.23 mPa·s
- viscosity (298.15 K, 101 kPa, x2 = 0.2): 4.22 ± 0.19 mPa·s
- viscosity (298.15 K, 101 kPa, x2 = 0.3): 3.579 ± 0.17 mPa·s
- viscosity (298.15 K, 101 kPa, x2 = 0.4): 3.213 ± 0.15 mPa·s
- viscosity (298.15 K, 101 kPa, x2 = 0.5): 2.928 ± 0.14 mPa·s
- viscosity (298.15 K, 101 kPa, x2 = 0.6): 2.661 ± 0.12 mPa·s
- viscosity (298.15 K, 101 kPa, x2 = 0.6999): 2.319 ± 0.11 mPa·s
- viscosity (298.15 K, 101 kPa, x2 = 0.8): 2.089 ± 0.098 mPa·s
- viscosity (298.15 K, 101 kPa, x2 = 0.9): 2.06 ± 0.096 mPa·s
- viscosity (308.15 K, 101 kPa, x2 = 0.1): 3.747 ± 0.17 mPa·s
- viscosity (308.15 K, 101 kPa, x2 = 0.2): 3.184 ± 0.15 mPa·s
- viscosity (308.15 K, 101 kPa, x2 = 0.3): 2.768 ± 0.13 mPa·s
- viscosity (308.15 K, 101 kPa, x2 = 0.4): 2.512 ± 0.12 mPa·s
- viscosity (308.15 K, 101 kPa, x2 = 0.5): 2.282 ± 0.11 mPa·s
- viscosity (308.15 K, 101 kPa, x2 = 0.6): 2.045 ± 0.096 mPa·s
- viscosity (308.15 K, 101 kPa, x2 = 0.6999): 1.856 ± 0.088 mPa·s
- viscosity (308.15 K, 101 kPa, x2 = 0.8): 1.707 ± 0.081 mPa·s
- viscosity (308.15 K, 101 kPa, x2 = 0.9): 1.695 ± 0.08 mPa·s
- viscosity (318.15 K, 101 kPa, x2 = 0.1): 2.881 ± 0.14 mPa·s
- viscosity (318.15 K, 101 kPa, x2 = 0.2): 2.474 ± 0.12 mPa·s
- viscosity (318.15 K, 101 kPa, x2 = 0.3): 2.2 ± 0.1 mPa·s
- viscosity (318.15 K, 101 kPa, x2 = 0.4): 2.012 ± 0.095 mPa·s
- viscosity (318.15 K, 101 kPa, x2 = 0.5): 1.853 ± 0.088 mPa·s
- viscosity (318.15 K, 101 kPa, x2 = 0.6): 1.678 ± 0.08 mPa·s
- viscosity (318.15 K, 101 kPa, x2 = 0.6999): 1.54 ± 0.074 mPa·s
- viscosity (318.15 K, 101 kPa, x2 = 0.8): 1.439 ± 0.069 mPa·s
- viscosity (318.15 K, 101 kPa, x2 = 0.9): 1.421 ± 0.068 mPa·s

From the CheMixHub viscosity set
